Data: patent US9650339B2, “Inhibitors of histone demethylases” (Gilead Sciences, Inc., priority 2013, dated 2017)

What was measured:
KDM5B = biological target: T1, KDM5B (Homo sapiens, UniProt Q9UGL1); experiment: Histone lysine demethylase immunofluorescence assay, U2OS cells transfected with KDM5B; assay type: cell-based; conditions: U2OS cells transfected with pCMVHA KDM5B; mark detected H3K4me2; 20 hours
T1 construct: (a.a. 1-752); host or cells: U2OS
T1 sequence (Q9UGL1 1-752): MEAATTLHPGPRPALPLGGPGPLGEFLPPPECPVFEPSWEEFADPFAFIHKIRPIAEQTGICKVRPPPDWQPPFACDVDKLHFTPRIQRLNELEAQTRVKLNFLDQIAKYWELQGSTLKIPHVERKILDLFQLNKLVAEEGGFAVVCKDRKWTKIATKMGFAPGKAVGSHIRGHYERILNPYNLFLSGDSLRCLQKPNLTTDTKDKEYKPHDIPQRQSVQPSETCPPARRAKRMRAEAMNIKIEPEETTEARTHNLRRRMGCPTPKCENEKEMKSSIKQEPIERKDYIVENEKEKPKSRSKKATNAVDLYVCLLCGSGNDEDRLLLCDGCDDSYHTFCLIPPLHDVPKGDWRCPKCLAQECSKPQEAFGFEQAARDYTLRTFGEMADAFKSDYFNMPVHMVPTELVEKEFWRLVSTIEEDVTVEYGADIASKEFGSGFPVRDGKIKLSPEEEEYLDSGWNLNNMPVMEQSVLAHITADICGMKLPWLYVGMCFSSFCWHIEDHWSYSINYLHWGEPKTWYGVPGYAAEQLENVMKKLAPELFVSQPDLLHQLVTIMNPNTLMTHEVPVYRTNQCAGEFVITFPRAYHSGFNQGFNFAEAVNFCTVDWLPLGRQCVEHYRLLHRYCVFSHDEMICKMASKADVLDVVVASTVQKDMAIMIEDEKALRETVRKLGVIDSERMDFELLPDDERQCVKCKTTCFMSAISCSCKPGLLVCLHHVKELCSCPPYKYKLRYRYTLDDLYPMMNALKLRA
Method: U2OS cells were seeded 24 hours before transfection. Transfection was performed with Fugene HD transfection reagent as recommended by the manufacturer. 6 hours after transfection, the cells were harvested and seeded into multi well plates into media containing compound. The media used was DMEM containing 10% FBS and pen/strep. 20 hours after incubation of cells with compounds, the cells were washed in PBS, harvested by fixation with formaldehyde 4% aqueous solution, and washed in PBS. Subsequently, the cells were permeabilized in PBS with 0.2% Triton X-100 for. Blocking was performed in PBS with 0.2% Triton X-100 and 5% FBS. The cells were incubated with primary antibodies in blocking solution over night at 4° C. The primary antibodies used in the assays were HA.11 (Covance, MMS-101P) and the antibody detecting the mark specified in the table below. After incubation with primary antibodies, the cells were washed with PBS, incubated with secondary antibodies (Alexa fluor 594 goat anti rabbit IgG, Invitrogen, A11012; Alexa flour 488 donkey anti mouse IgG, Invitrogen, A21202) and Hoechst, (Sigma, 33342) in blocking solution, and washed again with PBS. Finally, PBS was added and high throughput imaging and analysis were performed by an IN Cell Analyzer 1000 (GE Healthcare). The robot software analyzed individual cells and divided these into HA+ (transfected cells) and HA− (non-transfected cells). The IC50 values were based on an average measure of the staining of the mark specified in the table below in the transfected cells.

KDM3B (JMJD1B) = biological target: T2, KDM3B (JMJD1B) (Homo sapiens, UniProt Q7LBC6); experiment: Histone lysine demethylase AlphaLISA assay, KDM3B; assay type: biochemical; conditions: read-out: KDM3B HDME Inhibition IC50
T2 construct: 842-1761; host or cells: Bac (baculovirus system)
T2 sequence (Q7LBC6 842-1761): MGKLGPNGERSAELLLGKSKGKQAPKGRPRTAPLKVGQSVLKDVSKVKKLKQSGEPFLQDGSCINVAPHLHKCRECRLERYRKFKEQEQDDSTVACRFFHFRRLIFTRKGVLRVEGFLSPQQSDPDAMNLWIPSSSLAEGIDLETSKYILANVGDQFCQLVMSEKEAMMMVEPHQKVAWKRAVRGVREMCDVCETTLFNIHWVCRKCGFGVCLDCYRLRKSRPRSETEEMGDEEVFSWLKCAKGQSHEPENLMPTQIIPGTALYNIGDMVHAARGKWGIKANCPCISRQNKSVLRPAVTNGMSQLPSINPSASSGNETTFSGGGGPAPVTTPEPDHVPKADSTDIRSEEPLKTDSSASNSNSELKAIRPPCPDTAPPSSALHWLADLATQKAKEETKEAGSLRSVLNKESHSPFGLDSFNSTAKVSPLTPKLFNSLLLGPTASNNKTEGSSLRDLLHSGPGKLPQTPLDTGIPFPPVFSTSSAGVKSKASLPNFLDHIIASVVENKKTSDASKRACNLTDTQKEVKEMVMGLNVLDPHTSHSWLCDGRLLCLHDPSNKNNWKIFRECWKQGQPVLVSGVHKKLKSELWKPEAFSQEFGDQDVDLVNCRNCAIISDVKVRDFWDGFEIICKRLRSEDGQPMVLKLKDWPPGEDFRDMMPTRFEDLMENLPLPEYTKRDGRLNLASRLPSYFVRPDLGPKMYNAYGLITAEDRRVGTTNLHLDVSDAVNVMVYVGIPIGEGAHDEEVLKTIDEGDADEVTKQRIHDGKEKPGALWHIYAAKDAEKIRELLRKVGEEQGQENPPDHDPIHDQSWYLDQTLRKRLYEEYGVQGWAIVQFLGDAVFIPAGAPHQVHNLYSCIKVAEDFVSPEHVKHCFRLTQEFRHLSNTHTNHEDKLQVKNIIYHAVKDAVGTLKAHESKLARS
Method: Assays are performed analogously to the protocol described by PerkinElmer (Roy et al. PerkinElmer Technical Note: AlphaLISA #12, April 2011)
Enzymes are dissolved in enzyme buffer and incubated for 10 min before being added to 3% DMSO solutions of compounds in enzyme buffer. Incubated for another 10 minutes, before substrate solution is added and the reaction mixture is incubated at room temperature. 10 μL acceptor beads, suspended in Epigenetic Buffer (Perkin Elmer AL008) from stock, are added and the suspension is incubated in the dark at room temperature, before a suspension of streptavidin donor beads (Perkin Elmer 6760002) in Epigenetic Buffer is added. After incubation at room temperature in the dark the plates are read. […]
BK9M2: Biotin-ARTKQTAR(KMe2)STGGKAPRKQ-NH2 (AnaSpec 64359) […]
Substrate Solution: Substrate, 25 μM L-Asc, and 10 μM α-KG in Buffer A.

KDM6A (UTX) = KDM6A (UTX) (Homo sapiens, UniProt O15550); experiment: Histone lysine demethylase AlphaLISA assay, KDM6A; assay type: biochemical; conditions: read-out: KDM6A HDME Inhibition IC50
Procedure, shortened: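 Each enzyme was pre-incubated 10 min in buffer, then 10 min with compound in 3% DMSO solution. The reaction started with biotinylated histone H3 peptide substrate plus 25 μM L-ascorbate and 10 μM α-KG at room temperature. Detection used AlphaLISA acceptor beads, then streptavidin donor beads, in the dark.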

KDM6A (UTX), sequence (O15550 919-1401): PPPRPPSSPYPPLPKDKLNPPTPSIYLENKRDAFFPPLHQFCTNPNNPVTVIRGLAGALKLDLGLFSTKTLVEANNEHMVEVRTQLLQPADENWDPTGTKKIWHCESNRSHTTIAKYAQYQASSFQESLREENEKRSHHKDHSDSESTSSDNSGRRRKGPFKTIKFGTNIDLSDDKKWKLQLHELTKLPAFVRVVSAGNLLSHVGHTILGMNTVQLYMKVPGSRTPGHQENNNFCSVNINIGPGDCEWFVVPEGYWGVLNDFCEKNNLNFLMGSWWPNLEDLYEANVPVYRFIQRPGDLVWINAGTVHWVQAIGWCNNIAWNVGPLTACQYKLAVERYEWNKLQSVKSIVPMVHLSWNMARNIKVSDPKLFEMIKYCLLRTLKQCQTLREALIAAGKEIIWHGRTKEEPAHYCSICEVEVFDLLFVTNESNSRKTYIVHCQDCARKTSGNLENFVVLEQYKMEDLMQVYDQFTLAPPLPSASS

| IC50 (KDM5B) [nM] | IC50 (KDM3B (JMJD1B)) [nM] | IC50 (KDM6A (UTX)) [nM] | Structure (SMILES) |
| --- | --- | --- | --- |
| > 2500 | > 2500 | > 2500 | CC1CCCCN1CCCNCc1cc(CNC2CC2)ccn1 (stereo not drawn) [Compound 11, N-{[2-({[3-(2-methylpiperidin-1-yl)propyl]amino}methyl)-pyridin-4-yl]methyl}-cyclopropanamine] |
| < 250 | > 2500 | > 2500 | CCN(CC)CCCCNCc1cc(/C=N/CC(F)(F)C(F)(F)F)ccn1 [Compound 62, {[2-({[4-(diethylamino)-butyl]amino}methyl)pyridin-4-yl]methylidene} (2,2,3,3,3-pentafluoropropyl)-amine] |
| 250 to 2500 | > 2500 | > 2500 | CN(CCCNCc1cc(/C=N/C2CC2)ccn1)Cc1ccccc1 [Compound 41, N-({2-[({3-[benzyl(methyl)amino]-propyl}amino)methyl]-pyridin-4-yl}methylidene)-cyclopropanamine] |
| 250 to 2500 | > 2500 | > 2500 | CN(C)C(=O)CNCc1cc(/C=N/CCC2CCCCC2)ccn1 [Compound 36, 2-[({4-[[(2-cyclohexylethyl)imino]-methyl]pyridin-2-yl}methyl)amino]-N,N-dimethylacetamide] |
| 250 to 2500 | > 2500 | > 2500 | CN(C)CCNCc1cc(CNC(C#N)C2CC2)ccn1 (stereo not drawn) [Compound 21, 2-cyclopropyl-2-({[2-({[2-(dimethylamino)ethyl]-amino}methyl)pyridin-4-yl]methyl}amino)-acetonitrile] |
| 250 to 2500 | 250 to 2500 | > 2500 | CN1CCN(C(=O)CNCc2cc(/C=N/C3CC3)ccn2)CC1 [Compound 54, 2-[({4-[N-cyclopropyl-carboximidoyl]-pyridin-2-yl}methyl)amino]-1-(4-methylpiperazin-1-yl)ethan-1-one] |
| < 250 | > 2500 | > 2500 | CCN(CCN(C)C)C(=O)CNCc1cc(CN)ccn1 [Compound 4, 2-({[4-(aminomethyl)pyridin-2-yl]methyl}amino)-N-[2-(dimethylamino)ethyl]-N-ethylacetamide] |
| 250 to 2500 | > 2500 | > 2500 | CN(C)C(=O)CNCc1cc(/C=N\C2CC2)ccn1 [Compound 33] |
| 250 to 2500 | > 2500 | > 2500 | N#CCNCc1ccnc(CNCCCCN(Cc2ccccc2)C2CC2)c1 [Compound 23, 2-[({2-[({4-[benzyl(cyclopropyl)-amino]butyl}amino)-methyl]pyridin-4-yl}methyl)amino]-acetonitrile] |
| < 250 | > 2500 | > 2500 | CN(C)CCCCCNCc1cc(CN)ccn1 [Compound 8, [2-({[5-(dimethylamino)pentyl]-amino}methyl)pyridin-4-yl]methanamine] |
| < 250 | > 2500 | > 2500 | O=Cc1ccnc(CNCCCN2CCCC2)c1 [Compound 111, 2-({[3-(pyrrolidin-1-yl)propyl]amino}-methyl)pyridine-4-carbaldehyde] |
| < 250 | > 2500 | > 2500 | NCc1ccnc(CNCCCCN2CCC2)c1 [Compound 7, [2-({[4-(azetidin-1-yl)butyl]amino}methyl)-pyridin-4-yl]-methanamine] |
| 250 to 2500 | > 2500 | > 2500 | CN(C)CCNCc1ccnc(CNCC(=O)N(C)C)c1 [Compound 15, 2-({[4-({[2-(dimethylamino)ethyl]-amino}methyl)pyridin-2-yl]methyl}amino)-N,N-dimethylacetamide] |
| < 250 | > 2500 | > 2500 | CN(C)C/C=C/CNCc1cc(/C=N/C2CC2)ccn1 [Compound 43, N-{[2-({[(2E)-4-(dimethylamino)but-2-en-1-yl]amino}-methyl)pyridin-4-yl]methylidene}-cyclopropanamine] |
| < 250 | > 2500 | > 2500 | CCN(CCN(C)C)C(=O)CNCc1cc(C=O)ccn1 [Compound 101] |
| > 2500 | > 2500 | > 2500 | CCCNCc1cc(CNC2CC2)ccn1 [Compound 12, N-({2-[(propylamino)methyl]-pyridin-4-yl}methyl)-cyclopropanamine] |
| < 250 | > 2500 | > 2500 | O=C(CNCc1cc(/C=N/C2CC2)ccn1)N1CCC[C@@H]1CN1CCCC1 [Compound 49, 2-[({4-[N-cyclopropyl-carboximidoyl]pyridin-2-yl}methyl)amino]-1-[(2R)-2-(pyrrolidin-1-ylmethyl)pyrrolidin-1-yl]ethan-1-one] |
| 250 to 2500 | > 2500 | > 2500 | CN(C)C(=O)CNCc1cc(CNCC#N)ccn1 [Compound 13, 2-{[(4-{[(cyanomethyl)amino]-methyl}pyridin-2-yl)methyl]amino}-N,N-dimethylacetamide] |
| < 250 | > 2500 | > 2500 | CCN(CC)CCCCNCc1cc(C=O)ccn1 [Compound 107, 2-({[4-(diethylamino)-butyl]amino}-methyl)pyridine-4-carbaldehyde] |
| 250 to 2500 | > 2500 | > 2500 | CCN1CCCC1CNC(=O)CNCc1cc(/C=N/C2CC2)ccn1 (stereo not drawn) [Compound 51, 2-[({4-[N-cyclopropyl-carboximidoyl]-pyridin-2-yl}methyl)-amino]-N-[(1-ethylpyrrolidin-2-yl)methyl]acetamide] |
| 250 to 2500 | > 2500 | > 2500 | CCN(CC)C(=O)CNCc1cc(C=O)ccn1 [Compound 105, N,N-diethyl-2-{[(4-formylpyridin-2-yl)methyl]amino}-acetamide] |
